Like-named read-outs stand apart in the source and are kept apart here.
Key:
[1] = test system: Pseudomonas solanacearum; type: in vivo, tomato plants; settings: scale 0 (no control) to 4 (complete control)
[2] = test system: Ascaris lumbricoides var. suum; assay: anthelmintic activity in mice infected with Ascaris, medicated feed; type: in vivo; settings: Example 13, 0.05 percent in diet; control 2.66
From the text: The feeds were utilized as diets for separate groups of mice, five mice per group. About twelve hours after initiation of the feeding, the mice were infected with Ascaris lumbricoides var. summ ova. Another group of five mice was fed the non-medicated feed to serve as a control but was similarly infected at the same time with Ascaris lumbricoides var. suum. All groups were fed their respective feed and maintained under normal laboratory conditions for a period of eight days, at which time all mice were taken off feed. On the ninth day, all mice were sacrificed and the lungs examined to determine the presence, and if present, numbers, of lesions of Ascaris lumbricoides var. suum.
Another evaluation was conducted under the procedures reported in Example 11, except that the rates were varied. The results were as follows:
In a further evaluation, the monoammonium salts of A16886I and A16886II were separately evaluated for the control of Ascaris lumbricoides var. suum. The evaluations were conducted in accordance with the procedure reported in Example 11 at a concentration in the diet of 0.05 percent.

[3] = test system: Xanthomonas vesicatoria; assay: field trial, control of bacterial spot on tomato plants; type: in vivo
Description: (§1) A mixture of the monoammonium salt of A16886I and the monoammonium salt of A16886II was tested under field conditions for the control of Xanthomonas vesicatoria (bacterial spot) on mature bearing tomato plants. The mixture of the two salts was dispersed in water at a concentration of 100, 200, or 400 parts per million and applied to the plants at the rate of 75 gallons per acre. Application was made with a CO2 sprayer at 50 psi. Plants were sprayed twice, on successive days; after the second spray had dried, all plants were wounded by sand blasting and then within one minute the plants were inoculated with a bacterial inoculum of Xanthomonas vesicatoria. Three days later, a third spray application of the aqueous formulation of A16886 was made. Readings were made one week and two weeks after the last spray treatment. Controls consisted of groups of plants (1) sand blasted and inoculated; (2) sand blasted only; (3) untreated; and (4) treated with streptomycin (on the same three-day spraying schedule, at a concentration of 100, 200, or 400 parts per million of aqueous solution, using a rate of 75 gallons per acre), sand blasted, and inoculated. The results were as set forth in the following table, in which crop injury is reported on a scale of 0-10, with 0=no injury and 10=dead plants; and control of bacterial spot is reported on a percentage basis.

[4] = test system: tomato plants; assay: field trial, crop injury; type: in vivo; settings: scale 0 (no injury) to 10 (dead plants)
Description: as §1

[5] = First Reading, 100 parts/million
[6] = First Reading, 200 parts/million
[7] = First Reading, 400 parts/million
[8] = Second Reading, 100 parts/million
[9] = Second Reading, 200 parts/million
[10] = Second Reading, 400 parts/million

SMILES: NC(=O)OCC1=C(C(=O)O)N2C(=O)C(NC(=O)CCCC(N)C(=O)O)[C@H]2SC1 (stereo partly drawn) [7-(5-amino-5-carboxyvaleramido)-3-(carbamoyloxymethyl)-3-cephem-4-carboxylic acid]
- Disease Rating ([1]; Example 7, 10 ppm.): 1
- Disease Rating ([1]; Example 7, 100 ppm.): 4
- Average Number of Lung Lesions Per Group [2]: 0.20

SMILES: COC1(NC(=O)CCCC(N)C(=O)O)C(=O)N2C(C(=O)O)=C(COC(N)=O)CS[C@@H]21 (stereo partly drawn) [7-(5-amino-5-carboxyvaleramido)-3-(carbamoyloxymethyl)-7-methoxy-3-cephem-4-carboxylic acid]
- Disease Rating ([1]; Example 7, 10 ppm.): 2
- Disease Rating ([1]; Example 7, 100 ppm.): 4
- rating ([1]; Example 8, 100 ppm.): 4
- rating ([1]; Example 8, 200 ppm.): 4
- rating ([1]; Example 8, 400 ppm.): 4
- Average Number of Lung Lesions Per Group [2]: 0.46

SMILES: [H]/N=C(/N)N[C@H]1[C@H](O)[C@@H](O)[C@H](O[C@@H]2O[C@@H](C)[C@](O)(C=O)[C@H]2O[C@@H]2O[C@@H](CO)[C@H](O)[C@@H](O)[C@@H]2NC)[C@@H](N/C(N)=N\[H])[C@@H]1O [Streptomycin]
- Percent Bacterial Spot Control [3, 5]: 83%
- Percent Bacterial Spot Control [3, 6]: 81%
- Percent Bacterial Spot Control [3, 7]: 83%
- Percent Bacterial Spot Control [3, 8]: 57%
- Percent Bacterial Spot Control [3, 9]: 37%
- Percent Bacterial Spot Control [3, 10]: 59%
- Crop Injury Ratings [4, 5]: 0
- Crop Injury Ratings [4, 6]: 0
- Crop Injury Ratings [4, 7]: 0
- Crop Injury Ratings [4, 8]: 0
- Crop Injury Ratings [4, 9]: 0
- Crop Injury Ratings [4, 10]: 0
